Test results reported in patent publication US5508401A, “Substituted dibenzo[a,d]cycloheptene NMDA antagonists” (priority 1991, dated 1996).

Key:
[1] = Traction reflex deficit (ataxia) in mice; conditions: mouse, in vivo, ip, dose which produced the deficit in 50% of animals tested
Excerpt: In fact, the separation between a compound's NMDA-antagonist activity and ataxic activity (often expressed as an "efficacy ratio" of the ED50 's of these two activities) has been extensively used to evaluate its therapeutic usefulness versus its liabilities. In our studies, PCP is approximately equipotent in its abilities to antagonize NMDA-induced lethality in mice and cause ataxia as measured by the traction reflex deficit model, giving an efficacy ratio (ED50 /TD50) of approximately 1.4 (Table 1, infra).
(§1) NMDA-Induced Lethality and Traction Reflex Deficit (Ataxia)
^@ As measured in mice. Defined as the dose which produced the defici
in 50% of animals tested.

[2] = tested on: NMDA; assay: Inhibition of NMDA-induced lethality in mice; assay type: in vivo, male Swiss-albino mice (CD-1 strain); conditions: for Efficacy Ratio (ED50/TD50): NMDA-induced lethality vs traction reflex deficit (ataxia); for Efficacy Ratio (ED50/TD50) / ED50 Inhibition of NMDA-Induced Lethality / Percent of animals which survived at the dose indicated: ip, mice; for ED50 Inhibition of NMDA-Induced Lethality: dose required to produce 50% survival rate, NMDA 195 mg/kg i.p. 30 min after compound; for Percent of animals which survived at the dose indicated: NMDA 195 mg/kg i.p.
Description: The mice were pretreated with the representative test compounds followed thirty minutes later with NMDA (195 mg/kg, i.p., the ED90 dose for generalized myoclonus). The mice were then observed for 30 minutes, noting the latency of onset of generalized myoclonus (uncontrollable hind leg scratching or limbs and/or torso muscle jerking with loss of […] reflex) and death. From the latter, the ED50 for survival is determined. In this standard experimental test procedure, the specific compounds tested and their activity, which representatively establish the activity for all the compounds herein, are presented in Table I as follows:
as §1
Of Lethality Reflex Deficit
*As measured in mice. Defined as the dose required to produce 50% surviva
#Percent of animals which survived at the dose indicated.

[3] = target: NMDA-associated ion channel; assay: Displacement of [3H]-TCP from its binding site in rat frontal cortex homogenates; conditions: functional binding assay without added spermidine
Excerpt: Ability to Displace [^3 H]-TCP from the NMDA Ion Channel
*Functional binding assay without added spermidine.

[4] = tested on: NMDA-induced responses; conditions: cited from earlier work
[5] = cited from earlier work
[6] = in vivo; cited from earlier work
[7] = tested on: cerebral ischemia; conditions: in vivo; cited from earlier work
[8] = tested on: NMDA; conditions: in words; cited from earlier work
[9] = tested on: high-affinity PCP binding site in the NMDA-associated ion channel; conditions: cited from earlier work

| Compound | Efficacy Ratio (ED50/TD50) [2] | ED50 Inhibition of NMDA-Induced Lethality [2] [mg/kg] | IC50 [3] [nM] | Percent of animals which survived at the dose indicated ([2]; 5 mg/kg) [%] | other results |
| --- | --- | --- | --- | --- | --- |
| CC12CNC(Cc3ccc(Br)cc31)c1ccccc12 (stereo not shown) [Example 1, 10.11-Dihydro-3-bromo-5-methyl-10,5-(iminomethano)-5H -dibenzo[a,d]cycloheptene] | 3.2 | 4.6 | 192 | – | TD50 [1]: 14.7 mg/kg |
| CC12CNC(Cc3ccc(F)cc31)c1ccccc12 (stereo not shown) [Example 4, 10,11-Dihydro-3-fluoro-5-methyl-10,5-(iminomethano)-5H -dibenzo[a,d]cycloheptene] | – | – | – | 90 | – |
| CC12CNC(Cc3ccc(Br)cc31)c1ccccc12 (single isomer, unassigned; (-)) [Example 5, (-)-10,11-Dihydro-3-bromo-5-methyl-10,5-(iminomethano)-5H -dibenzo[a,d]cycloheptene] | – | – | 1010 | 40 | – |
| CC12CNC(Cc3ccc(Cl)cc31)c1ccccc12 (stereo not shown) [Example 3, 10,11-Dihydro-3-chloro-5-methyl-10,5-(iminomethano)-5H-dibenzo[a,d]cycloheptene] | – | – | – | 90 | – |
| COc1ccc2c(c1)[C@]13CCCC[C@@H]1[C@H](C2)N(C)CC3 [Dextromethorphan] | 2.1 | 21 | 745 | – | Potency in antagonizing NMDA-induced lethality vs PCP and MK-801 ([2]; in words): not as potent as PCP and MK-801; Antagonism of NMDA-induced responses [4]: noncompetitively antagonizes NMDA-induced responses; Metabolism in man [5]: metabolized to dextrorphan in man |
| C[C@]12N[C@H](Cc3ccccc31)c1ccccc12 [MK-801] | 0.9 | 0.19 | 2.6 | – | Drug discrimination: generalization for PCP [6]: generalizes for PCP; Protection against cell death in cerebral ischemia models [7]: protects against cell death in cerebral ischemia models; Antagonism of NMDA-induced lethality (background statement) [8]: antagonizes NMDA-induced lethality; Competition for the high-affinity PCP binding site [9]: competes for the high-affinity PCP binding site |
| CN1CC[C@@]23CCCC[C@@H]2[C@@H]1Cc1ccc(O)cc13 [Dextrorphan, dextrorphan] | – | 13 | – | – | – |
| CC12CNC(Cc3ccc(Br)cc31)c1ccccc12 (single isomer, unassigned; (+)) [Example 6, (+)-10,11-Dihydro-3-bromo-5-methyl-10,5-(iminomethano)-5H -dibenzo[a,d]cycloheptene] | – | 2.2 | 89 | – | – |
| CC12CNC(Cc3ccccc31)c1ccc(Br)cc12 (stereo not shown) [Example 2, 10,11-Dihydro-7-bromo-5-methyl-10,5-(iminomethano)-5H-dibenzo[a,d]cycloheptene] | – | – | 110 | – | Percent of animals which survived at the dose indicated ([2]; 20 mg/kg): 60% |
| c1ccc(C2(N3CCCCC3)CCCCC2)cc1 [PCP, phencyclidine] | – | 1.9 | 28.2 | – | Antagonism of NMDA-induced responses [4]: noncompetitively antagonize NMDA-induced responses; Protection against cell death in cerebral ischemia models [7]: protects against cell death in cerebral ischemia models; Antagonism of NMDA-induced lethality (background statement) [8]: antagonizes NMDA-induced lethality |
